The record followed here is patent US8309554B2 (priority 2008, dated 2012).

For one test, the system named is HT29. Put plainly: cells. It counts as cell-based. To be noted: for IC50: Homo sapiens, HT-29, 2 h.
The subject of a further test is H460. Put plainly: cells. To be noted: for IC50: Homo sapiens, NCI-H460, 2 h. It is filed as cell-based.

Read-outs that look alike come from different tables or passages of the source.

For the compound `O=[N+]([O-])c1sccc1C(Cn1nnc2ccccc21)S(=O)(=O)Oc1ccc(N(CCCl)CCCl)cc1` (centres unmarked) [TH-1343, 3-(4-(N,N-bis-(2-Chloroethyl)amino)phenoxysulfonyl-(benzotriazol-1-yl-methyl))methyl-2-nitrothiophene], the “HT29 HCR: Air/N2” value in the test on HT29 was more than 4.2. In addition, the half-maximal inhibitory concentration (IC50) in the test with HT29 (read-out: 2 hr Air HT29 IC50) is more than 1000 µM; in the test on HT29 (read-out: 2 hr N2 HT29 IC50), 24 µM; with H460 (read-out: 2 hr Air H460 IC50), 93 µM; in the test with H460 (read-out: 2 hr N2 H460 IC50) it was 0.7 µM. In the test on H460, the “H460 HCR: Air/N2” value worked out at 133.
On to `CC(=O)Nc1ccc(CC(c2ccsc2[N+](=O)[O-])S(=O)(=O)Oc2ccc(N(CCCl)CCCl)cc2)cc1` (centres unmarked) [TH-1346], for which, in the test on HT29, the “HT29 HCR: Air/N2” value was 3.2. For the same compound, the IC50 in the test with HT29 (read-out: 2 hr Air HT29 IC50) was found to be 145 µM; with HT29 (read-out: 2 hr N2 HT29 IC50), 46 µM; in the test on H460 (read-out: 2 hr Air H460 IC50), 220 µM; in the test with H460 (read-out: 2 hr N2 H460 IC50), 1.1 µM. Further, the “H460 HCR: Air/N2” value with H460 is 200.
Turning to `O=[N+]([O-])c1sccc1C(CCS(=O)(=O)N1CCC(O)CC1)S(=O)(=O)Oc1ccc(N(CCCl)CCCl)cc1` (centres unmarked) [TH-1347], the “HT29 HCR: Air/N2” value in the test on HT29 is reported as 20. For the same compound, the half-maximal inhibitory concentration (IC50) with HT29 (read-out: 2 hr Air HT29 IC50) stood at 398 µM; in the test with HT29 (read-out: 2 hr N2 HT29 IC50), 20 µM; in the test with H460 (read-out: 2 hr Air H460 IC50), 136 µM; with H460 (read-out: 2 hr N2 H460 IC50), 1.8 µM. Further, in the test on H460, the “H460 HCR: Air/N2” value stood at 76.
On to `O=[N+]([O-])c1sccc1C(Cc1ccccn1)S(=O)(=O)Oc1ccc(N(CCCl)CCCl)cc1` (centres unmarked) [TH-1357], for which the “HT29 HCR: Air/N2” value in the test on HT29 was more than 2. Moreover, the IC50 in the test with HT29 (read-out: 2 hr Air HT29 IC50) was more than 1000 µM; in the test with HT29 (read-out: 2 hr N2 HT29 IC50), 500 µM; with H460 (read-out: 2 hr Air H460 IC50), 127 µM; in the test on H460 (read-out: 2 hr N2 H460 IC50), 3.1 µM. Also, the “H460 HCR: Air/N2” value in the test with H460 is 41.
As to `CN(C)S(=O)(=O)CCC(c1ccsc1[N+](=O)[O-])S(=O)(=O)Oc1ccc(N(CCCl)CCCl)cc1` (centres unmarked) [TH-1360], the IC50 was more than 1000 µM in the test with HT29 (read-out: 2 hr Air HT29 IC50), more than 1000 µM in the test on HT29 (read-out: 2 hr N2 HT29 IC50), approximately 300 µM with H460 (read-out: 2 hr Air H460 IC50) and 4.3 µM with H460 (read-out: 2 hr N2 H460 IC50). The “H460 HCR: Air/N2” value in the test with H460 is reported as approximately 70.
As for `COc1ccc(CC(c2ccsc2[N+](=O)[O-])S(=O)(=O)Oc2ccc(N(CCCl)CCCl)cc2)c(OC)n1` (centres unmarked) [TH-1362], the IC50 in the test with HT29 (read-out: 2 hr Air HT29 IC50) was more than 1000 µM; with HT29 (read-out: 2 hr N2 HT29 IC50), more than 1000 µM; in the test with H460 (read-out: 2 hr Air H460 IC50), 253 µM; with H460 (read-out: 2 hr N2 H460 IC50), 5.5 µM. For the same compound, the “H460 HCR: Air/N2” value in the test with H460 stood at 46.
As to `O=[N+]([O-])c1sccc1C(CCS(=O)(=O)c1ccncc1)S(=O)(=O)Oc1ccc(N(CCCl)CCCl)cc1` (centres unmarked) [TH-1363], the IC50 in the test with HT29 (read-out: 2 hr Air HT29 IC50) is more than 1000 µM; in the test on HT29 (read-out: 2 hr N2 HT29 IC50), more than 1000 µM; in the test on H460 (read-out: 2 hr Air H460 IC50), 68 µM; with H460 (read-out: 2 hr N2 H460 IC50), 0.6 µM. Further, in the test on H460, the “H460 HCR: Air/N2” value is recorded as 113.
Regarding `CC(=O)Nc1ccncc1CC(c1ccsc1[N+](=O)[O-])S(=O)(=O)Oc1ccc(N(CCCl)CCCl)cc1` (centres unmarked) [TH-1364], the “HT29 HCR: Air/N2” value in the test with HT29 is reported as 27. Further, the IC50 with HT29 (read-out: 2 hr Air HT29 IC50) was determined as 350 µM; in the test with HT29 (read-out: 2 hr N2 HT29 IC50) it was 13 µM; with H460 (read-out: 2 hr Air H460 IC50) it was 64 µM; in the test on H460 (read-out: 2 hr N2 H460 IC50), 1.8 µM. Also, the “H460 HCR: Air/N2” value in the test with H460 is 36.
As for `Cn1ccnc1CC(c1ccsc1[N+](=O)[O-])S(=O)(=O)Oc1ccc(N(CCCl)CCCl)cc1` (centres unmarked) [TH-1366], in the test with HT29, the “HT29 HCR: Air/N2” value stood at 14. Moreover, the IC50 with HT29 (read-out: 2 hr Air HT29 IC50) is 180 µM; in the test with HT29 (read-out: 2 hr N2 HT29 IC50), 13 µM; in the test on H460 (read-out: 2 hr Air H460 IC50) it was 20 µM; in the test on H460 (read-out: 2 hr N2 H460 IC50) it was 0.5 µM. In the test with H460, the “H460 HCR: Air/N2” value was found to be 40.
As to `O=[N+]([O-])c1sccc1C(CCS(=O)(=O)c1ccc(C(F)(F)F)cn1)S(=O)(=O)Oc1ccc(N(CCCl)CCCl)cc1` (centres unmarked) [TH-1369], the IC50 in the test with HT29 (read-out: 2 hr Air HT29 IC50) is more than 1000 µM; in the test with HT29 (read-out: 2 hr N2 HT29 IC50), more than 1000 µM; with H460 (read-out: 2 hr Air H460 IC50), 236 µM; with H460 (read-out: 2 hr N2 H460 IC50), 1.8 µM. In the test on H460, the “H460 HCR: Air/N2” value turned out to be 131.
As for `Nc1ncccc1CC(c1ccsc1[N+](=O)[O-])S(=O)(=O)Oc1ccc(N(CCCl)CCCl)cc1.O=C(O)C(F)(F)F` (centres unmarked) [TH-1374], the “HT29 HCR: Air/N2” value in the test on HT29 was 23. The IC50 in the test with HT29 (read-out: 2 hr Air HT29 IC50) is 630 µM; in the test with HT29 (read-out: 2 hr N2 HT29 IC50) it was 28 µM; in the test with H460 (read-out: 2 hr Air H460 IC50), 145 µM; with H460 (read-out: 2 hr N2 H460 IC50), 2 µM. Besides, in the test on H460, the “H460 HCR: Air/N2” value is reported as 73.
For `CC(=O)Nc1ncccc1CC(c1ccsc1[N+](=O)[O-])S(=O)(=O)Oc1ccc(N(CCCl)CCCl)cc1` (centres unmarked) [TH-1375], in the test with HT29, the “HT29 HCR: Air/N2” value is reported as 16. Moreover, the IC50 in the test on HT29 (read-out: 2 hr Air HT29 IC50) worked out at 280 µM; in the test with HT29 (read-out: 2 hr N2 HT29 IC50) it was 17 µM; with H460 (read-out: 2 hr Air H460 IC50), 28 µM; in the test with H460 (read-out: 2 hr N2 H460 IC50), 0.3 µM. For the same compound, the “H460 HCR: Air/N2” value in the test with H460 is 93.
For `CC(=O)Nc1cc(CC(c2ccsc2[N+](=O)[O-])S(=O)(=O)Oc2ccc(N(CCCl)CCCl)cc2)ccn1` (centres unmarked) [TH-1376], in the test with HT29, the “HT29 HCR: Air/N2” value is recorded as 10. The IC50 turned out to be 540 µM in the test with HT29 (read-out: 2 hr Air HT29 IC50), 52 µM with HT29 (read-out: 2 hr N2 HT29 IC50), 212 µM with H460 (read-out: 2 hr Air H460 IC50) and 0.9 µM in the test with H460 (read-out: 2 hr N2 H460 IC50). In the test on H460, the “H460 HCR: Air/N2” value was found to be 236.

By IC50 is commonly meant the concentration needed to halve the response being measured.
